In the experiment the target is FKBP12 (Homo sapiens, UniProt P62942). The experiment can be described thus: FKBP12 binding assay (inhibition of rotomase activity). It counts as biochemical. The note with it: apparent Ki. The text has this:
Preferably, the assay measures inhibition of FKBP12 rotomase activity. Such an assay has also been described by M. W. Harding et al., supra and by J. J. Siekierka et al., supra. In this assay the isomerization of an artificial substrate--N-succinyl-Ala-Ala-Pro-Phe-p-nitroanilide--is followed spectrophotometrically. The assay includes the cis form of the substrate, FKBP12, the inhibitor and chymotrypsin. Chymotrypsin is able to cleave p-nitroanilide from the trans form of the substrate, but not the cis form. Release of p-nitroanilide is measured.
The inhibition of FKBP rotomase activity by the preferred FKBP12 binding compounds present in the compositions of this invention was assayed. In this assay various quantities of FKBP12 binding compound (0nM-10 μM) were added to cis-N-succinyl-Ala-Ala-Pro-Phe-p-nitroanilide in the presence of FKBP12 and chymotrypsin. FKBP12 converts the cis form of the substrate to the trans form. This allows chymotrypsin to cleave p-nitroanilide from the substrate. Release of p-nitroanilide was measured spectrophotometrically. This assay allowed me to measure the change in the first order rate constant of the rotomase activity as a function of FKBP12 binding compound concentration and yielded an estimate of apparent Ki.
Chain of FKBP12 (P62942 whole entry, species assumed): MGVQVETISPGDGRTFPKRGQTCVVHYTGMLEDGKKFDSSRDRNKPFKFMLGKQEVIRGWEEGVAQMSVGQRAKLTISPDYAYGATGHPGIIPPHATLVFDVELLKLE
`CCCC/C=C(\c1cncc([C@H](OC(=O)[C@@H]2CCCCN2C(=O)C(=O)C(C)C)/C(C)=C/C2CCN(C)CC2)c1)C1CCCCC1` [Compound 75]: the Ki worked out at 0.188 µM.
In the case of `CCO[C@@H]1CC[C@@H](C)[C@H](C(=O)C(=O)N2CCCC[C@H]2C(=O)O[C@H](CCN2CCOCC2)c2cccc(-n3c(C)ccc3C)c2)C1` [Compound 127] it was 0.019 µM; in that of `CCOCc1cccc(COCC)c1-c1cncc([C@H](CCN2CCOCC2)OC(=O)[C@@H]2CCCCN2C(=O)C(=O)CC(C)C)c1` [Compound 77], 2.1 µM; in that of `CCC/C(=C/COC)c1cncc([C@@H](CCN2CCOCC2)OC(=O)[C@@H]2CCCCN2C(=O)C(=O)[C@@H]2CCCC[C@H]2C)c1` [Compound 117], 0.15 µM.
To `CCC/C=C(/c1cccnc1)c1cccc([C@@H](CCCc2ccccc2)OC(=O)[C@@H]2CCCCN2C(=O)C(=O)c2cc(OC)c(OC)c(OC)c2)c1` [Compound 17] belongs 0.0006 µM; to `CCOCc1cc2ccccc2n1-c1cccc([C@H](OC(=O)[C@@H]2CCCCN2C(=O)C(=O)C(C)(C)COC)/C(C)=C/[C@H]2CC[C@H](O)CC2)c1` [Compound 58], > 9 µM.
As for `CCOCc1cccc(COCC)c1-c1cncc(C(OC(=O)[C@@H]2CCCCN2C(=O)C(=O)C2CCOCC2)/C(C)=C/c2ccncc2)c1` (stereo partly drawn) [Compound 68], the Ki is > 5 µM.
To `CCC/C=C(\c1cncc([C@H](OC(=O)[C@@H]2CCCCN2C(=O)C(=O)c2ccco2)/C(C)=C/[C@H]2CC[C@H](O)CC2)c1)C1CCCCC1` [Compound 46] belongs 0.1 µM; to `CCC/C=C(\c1cncc([C@@H](OC(=O)[C@@H]2CCCCN2C(=O)C(=O)c2ccco2)/C(C)=C/[C@H]2CC[C@H](O)CC2)c1)C1CCCCC1` [Compound 45], 0.23 µM; to `CCCc1ccc(CCC)n1-c1cccc([C@H](OC(=O)[C@@H]2CCCCN2C(=O)C(=O)C(C)(C)C(C)C)/C(C)=C/c2ccncc2)c1` [Compound 106], 2.1 µM.
In the case of `CCC/C=C(\c1cncc([C@@H](CCN2CCOCC2)OC(=O)[C@@H]2CCCCN2C(=O)C(=O)[C@@H]2C[C@@H](OCC)CN2C(C)=O)c1)C(C)C` [Compound 132] it was > 10 µM.
In the case of `CCOCc1cccc(COCC)c1-c1csc(C(CCN2CCOCC2)OC(=O)[C@@H]2CCCCN2C(=O)C(=O)C(C)(C)COC)c1` (stereo partly drawn) [Compound 50] it was > 10 µM; in that of `C=CCC/C=C(\c1ccc([C@@H](CCN2CCOCC2)OC(=O)[C@@H]2CCCCN2C(=O)C(=O)C(C)(C)C)s1)C1CCOCC1` [Compound 70], 0.045 µM.
Consider `CCCCc1ccc(C)n1-c1cccc([C@@H](CCN2CCOCC2)OC(=O)[C@@H]2CCCCN2C(=O)C(=O)C(C)(C)C(C)C)c1` [Compound 122], for which the Ki was determined as 0.032 µM.
On to `COC/C=C(\c1cncc([C@@H](OC(=O)[C@@H]2CCCCN2C(=O)C(=O)c2ccco2)/C(C)=C/[C@H]2CC[C@H](O)CC2)c1)C1CCCCC1` [Compound 48], for which the Ki turned out to be 0.12 µM.
To `C=CCC/C=C(/c1cccnc1)c1ccc([C@@H](CCN2CCOCC2)OC(=O)[C@@H]2CCCCN2C(=O)C(=O)C2(C)CCCCC2)s1` [Compound 96] belongs 0.028 µM; to `CCC/C=C(\c1cncc([C@@H](CCN2CCOCC2)OC(=O)[C@@H]2CCCCN2C(=O)C(=O)[C@@H]2C[C@H](C(C)(C)OC)CC[C@H]2C)c1)C(C)C` [Compound 129], 1.2 µM; to `COc1ccc(C(=O)C(=O)N2CCCC[C@H]2C(=O)O[C@H](CCCc2ccccc2)c2cncc(-c3ccccc3OC)c2)cc1OC` [Compound 13], 0.005 µM.
For `COC/C=C(\c1cncc([C@H](CCN2CCOCC2)OC(=O)[C@@H]2CCCCN2C(=O)C(=O)C(C)(C)C(C)C)c1)C(C)C` [Compound 116], the Ki was 0.13 µM.
In the case of `CCOCc1cc2ccccc2n1-c1cccc([C@H](OC(=O)[C@@H]2CCCCN2C(=O)C(=O)c2ccco2)/C(C)=C/[C@H]2CC[C@H](O)CC2)c1` [Compound 44] it was 0.053 µM.
To `COC/C=C(\c1cncc([C@@H](CCN2CCOCC2)OC(=O)[C@@H]2CCCCN2C(=O)C(=O)[C@@H]2C[C@H](C(C)(C)OC)CC[C@H]2C)c1)C(C)C` [Compound 124] belongs 1 µM; to `CCOc1ccc(OCC)c(-c2cncc([C@H](CCCc3ccccc3)OC(=O)[C@@H]3CCCCN3C(=O)C(=O)c3cc(OC)c(OC)c(OC)c3)c2)c1` [Compound 88], 0.064 µM; to `CCOCc1cc2ccccc2n1-c1cccc([C@H](OC(=O)[C@@H]2CCCCN2C(=O)C(=O)C2(O)CCOCC2)/C(C)=C/[C@H]2CC[C@H](O)CC2)c1` [Compound 57], 0.93 µM.
In the case of `COC/C=C(\c1cncc([C@H](OC(=O)[C@@H]2CCCCN2C(=O)C(=O)CC(C)C)/C(C)=C/[C@H]2CC[C@H](O)CC2)c1)C1CCCCC1` [Compound 60] it was 0.057 µM; in that of `CCOCc1cccc(COCC)c1-c1cncc([C@@H](CCN2CCOCC2)OC(=O)[C@@H]2CCCCN2C(=O)C(=O)C2(C)CCCCC2)c1` [Compound 78], 0.077 µM; in that of `CCCc1ccc(CCC)n1-c1cccc(C(OC(=O)[C@@H]2CCCCN2C(=O)C(=O)[C@@H]2CCCC[C@H]2C)/C(C)=C/c2ccncc2)c1` (stereo partly drawn) [Compound 108], 5.1 µM.
Regarding `CCOCc1cc2ccccc2n1-c1cccc([C@@H](CCN2CCOCC2)OC(=O)[C@@H]2CCCCN2C(=O)C(=O)C2(C)CCCCC2)c1` [Compound 86], the Ki turned out to be 0.014 µM.
In the case of `COCc1cccc(COC)c1-c1cncc([C@H](OC(=O)[C@@H]2CCCCN2C(=O)C(=O)c2ccco2)/C(C)=C/[C@H]2CC[C@H](O)CC2)c1` [Compound 41] it was 0.067 µM; in that of `CCC/C=C(\c1cncc([C@@H](OC(=O)[C@@H]2CCCCN2C(=O)C(=O)c2ccc(F)cc2)/C(C)=C/[C@H]2CC[C@H](O)CC2)c1)C1CCCCC1` [Compound 42], 2.1 µM; in that of `CCC/C=C(/c1cccnc1)c1cccc(C(CCN2CCOCC2)OC(=O)[C@@H]2CCCCN2C(=O)C(=O)C(C)(C)C(C)C)c1` (stereo partly drawn) [Compound 92], 0.032 µM.
In the case of `CCOCc1cccc(COCC)c1-c1cncc([C@@H](CCN2CCOCC2)OC(=O)[C@@H]2CCCCN2C(=O)C(=O)CC(C)C)c1` [Compound 73] it was 0.718 µM.
For the compound `C=CCC/C=C(/c1cccnc1)c1ccc([C@@H](OC(=O)[C@@H]2CCCCN2C(=O)C(=O)C(C)(C)COC)/C(C)=C/C2CCN(C)CC2)s1` [Compound 55], the Ki was > 10 µM.
To `CCOc1ccc(OCC)c(-c2cccc(C(CCCc3ccccc3)OC(=O)[C@@H]3CCCCN3C(=O)C(=O)c3cc(OC)c(OC)c(OC)c3)c2)c1` (stereo partly drawn) [Compound 4] belongs > 5 µM.
For `CCOc1ccccc1-c1cncc([C@H](CCCc2ccccc2)OC(=O)[C@@H]2CCCCN2C(=O)C(=O)c2ccc(OC)c(OC)c2)c1` [Compound 21], the Ki is 0.09 µM.
In the case of `CCCCc1ccc(C)n1-c1cccc([C@@H](CCN2CCOCC2)OC(=O)[C@@H]2CCCCN2C(=O)C(=O)[C@@H]2C[C@H](OCC)CC[C@H]2C)c1` [Compound 121] it was 0.085 µM.
On to `CCOc1ccc(OCC)c(-c2cccc([C@H](CCCc3ccccc3)OC(=O)[C@@H]3CCCCN3C(=O)C(=O)c3cc(OC)c(OC)c(OC)c3)c2)c1` [Compound 7], for which the Ki was > 10 µM.
To `CCC/C(=C/COC)c1cncc(C(CCN2CCOCC2)OC(=O)[C@@H]2CCCCN2C(=O)C(=O)[C@@H]2C[C@H](OCC)CC[C@H]2C)c1` (stereo partly drawn) [Compound 125] belongs 1.1 µM.
In the case of `CCOCc1cc2ccccc2n1-c1cccc([C@H](OC(=O)[C@@H]2CCCCN2C(=O)C(=O)C2(O)CCOCC2)/C(C)=C/[C@H]2CC[C@H](O)CC2)c1` [Compound 65] it was 0.49 µM; in that of `CC/C=C(/c1cccnc1)c1cccc([C@@H](CCCc2ccccc2)OC(=O)[C@@H]2CCCCN2C(=O)C(=O)c2cc(OC)c(OC)c(OC)c2)c1` [Compound 29], 0.001 µM; in that of `CCC/C=C(\c1cncc([C@@H](CCN2CCOCC2)OC(=O)[C@@H]2CCCCN2C(=O)C(=O)[C@@H]2CCCC[C@H]2C)c1)C(C)C` [Compound 128], 0.041 µM.
In the case of `CCC/C=C(\c1cccnc1)c1cccc([C@H](CCN2CCOCC2)OC(=O)[C@@H]2CCCCN2C(=O)C(=O)c2cc(OC)c(OC)c(OC)c2)c1` [Compound 31] it was 0.13 µM; in that of `CCOCc1cccc(COCC)c1-c1csc([C@@H](CCN2CCOCC2)OC(=O)[C@@H]2CCCCN2C(=O)C(=O)C(C)(C)C)c1` [Compound 62], 0.1 µM; in that of `CCCC/C=C(/c1cccnc1)c1cccc([C@@H](CCN2CCOCC2)OC(=O)[C@@H]2CCCCN2C(=O)C(=O)c2cc(OC)c(OC)c(OC)c2)c1` [Compound 34], 0.006 µM.
With `CCOc1ccc(OCC)c(-c2cncc([C@H](CCCc3ccccc3)OC(=O)[C@@H]3CCCCN3C(=O)C(=O)c3ccc(OC)c(OC)c3)c2)c1` [Compound 12], the Ki worked out at 0.03 µM.
On to `CCCC/C=C(/c1cccnc1)c1cccc([C@@H](CCCc2ccccc2)OC(=O)[C@@H]2CCCCN2C(=O)C(=O)c2cc(OC)c(OC)c(OC)c2)c1` [Compound 37], for which the Ki was < 0.001 µM.
Turning to `C=CCC/C=C(/c1cccnc1)c1ccc([C@@H](OC(=O)[C@@H]2CCCCN2C(=O)C(=O)CC(C)C)/C(C)=C/C2CCN(C)CC2)s1` [Compound 71], the Ki was found to be 0.364 µM.
To `C=CCC/C=C(/c1cccnc1)c1ccc([C@H](OC(=O)[C@@H]2CCCCN2C(=O)C(=O)CC(C)C)/C(C)=C/C2CCN(C)CC2)s1` [Compound 72] belongs 0.225 µM; to `C=CCC/C=C(/c1cccnc1)c1ccc([C@H](CCN2CCOCC2)OC(=O)[C@@H]2CCCCN2C(=O)C(=O)c2cc(COC)ccc2C)s1` [Compound 101], 0.5 µM.
